Data published in patent US9499550B2 (BRISTOL-MYERS SQUIBB COMPANY, priority 2012, dated 2016).
Like-named read-outs stand apart in the source and are kept apart here.

Assays:
[1] = test system: HCV genotype 1a (H77 strain) replicon in HUH-7 cells; assay: HCV replicon luciferase reporter assay, genotype 1a; assay type: cell-based; settings: Hepatitis C virus, Huh-7, 72 h, 3 days incubation
In short: (§1)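 Replicon inhibition for both genotypes was measured as Renilla luciferase signal (EnduRen, 7.5 μM final, 2 h) after 3-day, 37° C exposure of replicon-bearing HUH-7 cells in 4% FCS DMEM, 0.5% DMSO. The 1b construct carries S1179I; the 1a H77 construct carries P1496L and S2204I. Twenty-point, 3-fold dilutions were fitted four-parametrically for EC50, and CC50 was taken from multiplexed Cell Titer-Blue.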

[2] = test system: HCV genotype 1b (Con1) replicon in HUH-7 cells; assay: HCV replicon luciferase reporter assay, genotype 1b; assay type: cell-based; settings: Hepatitis C virus, Huh-7, 72 h, 3 days incubation
In short: as §1

[3] = HCV genotype 1a replicon luciferase, read-out: LE_1a (EC50, range)
[4] = HCV genotype 1b replicon luciferase, read-out: LE_1b (EC50, range)

Row | SMILES | EC50 [1, 3] | EC50 [2, 4] | EC50 ([1]; HCV genotype 1a replicon luciferase assay, range class, read-out: LE_1a (EC50, range)) | EC50 ([2]; HCV genotype 1b replicon luciferase assay, range class, read-out: LE_1b (EC50, range)) | EC50 ([1]; HCV genotype 1a replicon luciferase, read-out: LE_1a (EC50)) | EC50 ([2]; HCV genotype 1b replicon luciferase, read-out: LE_1b (EC50))
1 | [2H]C([2H])([2H])Oc1cnc(O[C@@H]2C[C@H]3C(=O)N[C@]4(C(=O)NS(=O)(=O)C5(C)CC5)C[C@H]4/C=C\CC[C@@H](C)C[C@@H](C)[C@H](NC(=O)OC(C)(C)C(C)(F)F)C(=O)N3C2)c2ccccc12 [Compound 5109, 3,3-difluoro-2-methylbutan-2-yl((2R,6S,7R,9R,13aS,14aR,16aS,Z)-7,9-dimethyl-14a-(((1-methylcyclopropyl)sulfonyl)carbamoyl)-5,16-dioxo-2-((4-(trideuteromethoxy)isoquinolin-1-yl)oxy)-1,2,3,5,6,7,8,9,10,11,13a,14,14a,15,16,16a-hexadecahydrocyclopropa[e]pyrrolo[1,2-a][1,4]diazacyclopentadecin-6-yl)carbamate] | < 5.46 nM | < 5.46 nM | – | – | – | –
2 | CC(C)Oc1cc2c(Cl)cccc2c(O[C@@H]2C[C@H]3C(=O)N[C@]4(C(=O)NS(=O)(=O)C5(C)CC5)C[C@H]4/C=C\CC[C@@H](C)C[C@@H](C)[C@H](NC(=O)OC(C)(C)C)C(=O)N3C2)n1 [Compound 1090, tert-butyl ((2R,6S,7R,9R,13aS,14aR,16aS,Z)-2-((5-chloro-3-isopropoxyisoquinolin-1-yl)oxy)-7,9-dimethyl-14a-(((1-methylcyclopropyl)sulfonyl)carbamoyl)-5,16-dioxo-1,2,3,5,6,7,8,9,10,11,13a,14,14a,15,16,16a-hexadecahydrocyclopropa[e]pyrrolo[1,2-a][1,4]diazacyclopentadecin-6-yl)carbamate] | – | – | < 5.46 nM | < 5.46 nM | – | –
3 | CCCOc1cnc(O[C@@H]2C[C@H]3C(=O)N[C@]4(C(=O)NS(=O)(=O)C5CC5)C[C@H]4/C=C\CC[C@H](C)C[C@@H](C)[C@H](NC(=O)OC(C)(C)C(F)(F)F)C(=O)N3C2)c2ccccc12 [Compound 5090, 1,1,1-trifluoro-2-methylpropan-2-yl((2R,6S,7R,9S,13aS,14aR,16aS,Z)-14a-((cyclopropylsulfonyl)carbamoyl)-7,9-dimethyl-5,16-dioxo-2-((4-propoxyisoquinolin-1-yl)oxy)-1,2,3,5,6,7,8,9,10,11,13a,14,14a,15,16,16a-hexadecahydrocyclopropa[e]pyrrolo[1,2-a][1,4]diazacyclopentadecin-6-yl)carbamate] | > 87.4 nM | 4.82 to 103 nM | – | – | 522 nM | 87.4 nM
4 | COc1ccc2c(O[C@@H]3C[C@H]4C(=O)N[C@]5(C(=O)NS(=O)(=O)C6CC6)C[C@H]5/C=C\CC[C@H](C)C[C@@H](C)[C@H](NC(=O)OC(C)(C)C)C(=O)N4C3)nc(-c3ccc(OC(C)C)cn3)cc2c1 [Compound 5200, tert-butyl ((2R,6S,7R,9S,13aS,14aR,16aS,Z)-14a-((cyclopropylsulfonyl)carbamoyl)-2-((3-(5-isopropoxypyridin-2-yl)-6-methoxyisoquinolin-1-yl)oxy)-7,9-dimethyl-5,16-dioxo-1,2,3,5,6,7,8,9,10,11,13a,14,14a,15,16,16a-hexadecahydrocyclopropa[e]pyrrolo[1,2-a][1,4]diazacyclopentadecin-6-yl)carbamate] | < 5.46 nM | < 5.46 nM | – | – | – | –
5 | CC[C@@H]1C[C@H](C)CC/C=C\[C@@H]2C[C@@]2(C(=O)NS(=O)(=O)C2(C)CC2)NC(=O)[C@@H]2C[C@@H](Oc3nccc4cc(OC)c(F)cc34)CN2C(=O)[C@H]1NC(=O)OC(C)(C)C(C)(F)F [Compound 5435, 3,3-difluoro-2-methylbutan-2-yl((2R,6S,7R,9R,13aS,14aR,16aS,Z)-7-ethyl-2-((7-fluoro-6-methoxyisoquinolin-1-yl)oxy)-9-methyl-14a-(((1-methylcyclopropyl)sulfonyl)carbamoyl)-5,16-dioxo-1,2,3,5,6,7,8,9,10,11,13a,14,14a,15,16,16a-hexadecahydrocyclopropa[e]pyrrolo[1,2-a][1,4]diazacyclopentadecin-6-yl)carbamate] | 1.01 to 5 nM | 1.01 to 5 nM | – | – | – | –
